Experimental data taken from the supplement of paper PMC13207355.

What was measured:
Conditions in all cases: exposure time: 72 h
E13 [1] = patient-derived glioblastoma stem cells of classical subtype; assay: surviving fraction (nuclei count normalised to DMSO); higher = more cells surviving (less toxic)
E21 [2] = patient-derived glioblastoma stem cells of mesenchymal subtype; assay: as above
E28 [3] = patient-derived glioblastoma stem cells of classical subtype; assay: as above
E31 [4] = patient-derived glioblastoma stem cells of proneural subtype; assay: as above
E34 [5] = patient-derived glioblastoma stem cells of proneural subtype; assay: as above
E57 [6] = patient-derived glioblastoma stem cells of mesenchymal subtype; assay: as above
FT3469 [7] = normal neural stem cell line; assay: as above
E13 [8] = assay: phenotypic distance (Euclidean, principal components) from DMSO controls (arbitrary units); higher = stronger morphological change
E21 [9] = assay: as above
E28 [10] = assay: as above
E31 [11] = assay: as above
E34 [12] = assay: as above
E57 [13] = assay: as above
FT3469 [14] = assay: as above
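For phenotypic distance (Euclidean, principal components) from DMSO controls in this document: cell Painting imaging in 384-well plates, CellProfiler features reduced to at least 20 principal components, Euclidean distance versus same-plate DMSO vehicle wells (0.1% v/v), median over six images per well.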
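For surviving fraction (nuclei count normalised to DMSO) in this document: nuclei counted by high-content imaging of Hoechst-stained cells in laminin-coated 384-well plates, relative to 0.1% DMSO vehicle wells, with staurosporine as cell-death control.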

CC[C@@]1(O)C(=O)OCc2c1cc1n(c2=O)Cc2cc3c(CN(C)C)c(O)ccc3nc2-1 [Topotecan]
Conditions	phenotypic distance	surviving fraction
E13 [1], 4.1 nM	–	0.414
E13 [1], 12.3 nM	–	0.381
E13 [1], 37 nM	–	0.367
E13 [1], 111.1 nM	–	0.279
E13 [1], 333.3 nM	–	0.251
E13 [1], 1000 nM	–	0.206
E13 [1], 3000 nM	–	0.176
E13 [8], 4.1 nM	5.03	–
E13 [8], 12.3 nM	5.52	–
E13 [8], 37 nM	5.83	–
E13 [8], 111.1 nM	6.68	–
E13 [8], 333.3 nM	6.45	–
E13 [8], 1000 nM	6.68	–
E13 [8], 3000 nM	7.15	–
E21 [2], 4.1 nM	–	0.191
E21 [2], 12.3 nM	–	0.135
E21 [2], 37 nM	–	0.114
E21 [2], 111.1 nM	–	0.115
E21 [2], 333.3 nM	–	0.13
E21 [2], 1000 nM	–	0.113
E21 [2], 3000 nM	–	0.104
E21 [9], 4.1 nM	4.95	–
E21 [9], 12.3 nM	5.78	–
E21 [9], 37 nM	6.25	–
E21 [9], 111.1 nM	6.93	–
E21 [9], 333.3 nM	5.67	–
E21 [9], 1000 nM	5.76	–
E21 [9], 3000 nM	5.07	–
E28 [3], 4.1 nM	–	0.408
E28 [3], 12.3 nM	–	0.351
E28 [3], 37 nM	–	0.384
E28 [3], 111.1 nM	–	0.347
E28 [3], 333.3 nM	–	0.333
E28 [3], 1000 nM	–	0.288
E28 [3], 3000 nM	–	0.28
E28 [10], 4.1 nM	3.44	–
E28 [10], 12.3 nM	3.75	–
E28 [10], 37 nM	3.05	–
E28 [10], 111.1 nM	3.65	–
E28 [10], 333.3 nM	3.55	–
E28 [10], 1000 nM	4.27	–
E28 [10], 3000 nM	4.08	–
E31 [4], 4.1 nM	–	0.173
E31 [4], 12.3 nM	–	0.149
E31 [4], 37 nM	–	0.188
E31 [4], 111.1 nM	–	0.176
E31 [4], 333.3 nM	–	0.249
E31 [4], 1000 nM	–	0.17
E31 [4], 3000 nM	–	0.213
E31 [11], 4.1 nM	3.31	–
E31 [11], 12.3 nM	3.53	–
E31 [11], 37 nM	2.95	–
E31 [11], 111.1 nM	3.38	–
E31 [11], 333.3 nM	3.17	–
E31 [11], 1000 nM	3.49	–
E31 [11], 3000 nM	3.68	–
E34 [5], 4.1 nM	–	0.539
E34 [5], 12.3 nM	–	0.576
E34 [5], 37 nM	–	0.519
E34 [5], 111.1 nM	–	0.55
E34 [5], 333.3 nM	–	0.529
E34 [5], 1000 nM	–	0.519
E34 [5], 3000 nM	–	0.389
E34 [12], 4.1 nM	3.5	–
E34 [12], 12.3 nM	2.99	–
E34 [12], 37 nM	3.02	–
E34 [12], 111.1 nM	2.09	–
E34 [12], 333.3 nM	2.86	–
E34 [12], 1000 nM	4.13	–
E34 [12], 3000 nM	3.32	–
E57 [6], 4.1 nM	–	0.321
E57 [6], 12.3 nM	–	0.211
E57 [6], 37 nM	–	0.175
E57 [6], 111.1 nM	–	0.164
E57 [6], 333.3 nM	–	0.145
E57 [6], 1000 nM	–	0.129
E57 [6], 3000 nM	–	0.109
E57 [13], 4.1 nM	6.01	–
E57 [13], 12.3 nM	7.66	–
E57 [13], 37 nM	7.47	–
E57 [13], 111.1 nM	7.5	–
E57 [13], 333.3 nM	7.56	–
E57 [13], 1000 nM	6.96	–
E57 [13], 3000 nM	7.64	–
FT3469 [7], 4.1 nM	–	0.622
FT3469 [7], 12.3 nM	–	0.625
FT3469 [7], 37 nM	–	0.634
FT3469 [7], 111.1 nM	–	0.653
FT3469 [7], 333.3 nM	–	0.629
FT3469 [7], 1000 nM	–	0.446
FT3469 [7], 3000 nM	–	0.464
FT3469 [14], 4.1 nM	2.65	–
FT3469 [14], 12.3 nM	1.91	–
FT3469 [14], 37 nM	2.54	–
FT3469 [14], 111.1 nM	2.79	–
FT3469 [14], 333.3 nM	2.66	–
FT3469 [14], 1000 nM	3.43	–
FT3469 [14], 3000 nM	3.06	–
